{"source": "patent US6703229B2", "about": "“Aryl propenal double bond reductase” (Washington State University Research Foundation, priority 2000, dated 2004)", "key": {"reverse transcriptase": {"biological_target": "reverse transcriptase (Human immunodeficiency virus type 1 group M subtype B, UniProt P04585)", "conditions": "cited from earlier work"}, "[1]": {"system": "aryl propenal double bond reductase (SEQ ID NO:2)", "experiment": "Enzyme assay of recombinant aryl propenal double bond reductase (HPLC of products)", "type": "biochemical, Pinus taeda", "conditions": "for reduction of the aryl propenal substrate by the recombinant reductase: recombinant enzyme expressed from SEQ ID NO:1, in the presence of [4R]-NADPH", "method": "Enzyme assays—Each non-radioactive assay (250 μl) consisted of buffer (50 mM Tris-HCl, pH 8.0), substrate (12.5 mM in DMSO, 10 μl), NADPH (25 mM in H2O, 10 μl), and the enzyme preparation (30 μl containing 5 mM DTT). Controls were performed using either denatured enzyme (boiled 96° C., 10 min) or in absence of enzyme. After 1 hour incubation at 30° C. with shaking, the reaction mixture was extracted with EtOAc (500 μl×2) with the EtOAc solubles combined and evaporated to dryness in vacuo. The EtOAc solubles were dissolved in CH3CN (10 μl) and then in 3% AcOH (90 μl), and subjected to reverse-phase HPLC with UV detection (280 nm).\nRadioactive assays were performed in the same way as the non-radioactive assay with the following exceptions: the reaction was initiated by addition of [4S-^3H] or [4R-^3H]NADPH (25 mM in H2O, 666.7 kBq 10 μl). The EtOAc solubles were reconstituted in CH3CN/H2O and subjected to reverse-phase HPLC as described above with 0.5 ml fractions collected and an aliquot (100 μl) of each removed for scintillation counting to determine the level of incorporation of ^3H into the products.\nReversed phase HPLC separation of substrates and products—Separation of dehydrodiconiferyl alcohol (DDC), dihydrodehydrodiconiferyl alcohol (DDDC), dehydrodiconiferyl aldehyde (DDCA), dihydrodehydrodiconiferyl aldehyde (DDDCA) coniferyl alcohol (CA), dihydroconiferyl alcohol (DCA), coniferyl aldehyde (CAL), and dihydroconiferyl aldehyde (DCAL) was carried out using a reverse-phase column (Symmetry Shield RP8, 3.9×150 mm, Waters) as follows: CH3CN-3% AcOH in H2O (1:9) from 0 to 5 min, then linear gradient to 1:3 between 5 to 30 min, and finally linear gradient to 100% CH3CN over 25 min, at a flow rate of 1 ml/min."}, "cAMP-phosphodiesterase": {"system": "cAMP-phosphodiesterase", "conditions": "cited from earlier work"}}, "data": [{"molecule": "COc1cc(C[C@H]2C(=O)OC[C@@H]2Cc2ccc(OC)c(OC)c2)ccc1O", "note": "[(−)-arctigenin]", "values": [{"measurement": "effectiveness against HIV (reverse transcriptase inhibitory activity)", "setting": "reverse transcriptase", "result": "effective against HIV"}]}, {"molecule": "COc1cc(/C=C/C=O)ccc1O", "note": "[coniferyl aldehyde]", "values": [{"measurement": "reduction of the aryl propenal substrate by the recombinant reductase", "setting": "[1]", "result": "capable of reducing coniferyl aldehyde to dihydroconiferyl aldehyde"}]}, {"molecule": "COc1cc([C@@H]2Oc3c(OC)cc(/C=C/C=O)cc3[C@H]2CO)ccc1O", "note": "[dehydrodiconiferyl aldehyde]", "values": [{"measurement": "reduction of the aryl propenal substrate by the recombinant reductase", "setting": "[1]", "result": "regiospecifically reduce the double-bond"}]}, {"molecule": "COc1cc(C[C@H]2COC(=O)[C@@H]2Cc2ccc(O)c(OC)c2)ccc1O", "note": "[matairesinol]", "values": [{"measurement": "inhibition of cAMP-phosphodiesterase", "setting": "cAMP-phosphodiesterase", "result": "inhibit cAMP-phosphodiesterase"}]}, {"molecule": "CC(Cc1ccc(O)c(O)c1)C(C)Cc1ccc(O)c(O)c1", "note": "(stereo not shown) [nordihydroguaiaretic acid]", "values": [{"measurement": "effectiveness against HIV (reverse transcriptase inhibitory activity)", "setting": "reverse transcriptase", "result": "effective against HIV"}]}, {"molecule": "(−)-trachelogenin", "values": [{"measurement": "effectiveness against HIV (reverse transcriptase inhibitory activity)", "setting": "reverse transcriptase", "result": "effective against HIV"}]}, {"molecule": "aryl propenal double bond reductase (SEQ ID NO:2): Pinus taeda aryl propenal double bond reductase encoded by cDNA SEQ ID NO:1, expressed in E. coli (protein) MEQRVPNRELILVAYANEGPVTDSHLNIRETKLDLGSVGKDGSSGDVAVQNLWISVDPYLRQLMKESDDGLYLPSFPLNQAIRSILVGKVVASANPAFEVGDIVSGFYQVSEYAIVPRGDLMKIDTSVVKPSDYLGLLGMPALTAWAGFIIVGEPKPGDEVFVSAAAGSVGMLVGQLAKIKSCRVVGSAGSDQKVKLLKEFGFDDAFNYKCETDLDAALSRYFPRGIDIYFDNVGGRMLEAVLNHINMKARIPLCGMISQYNQEWKQRFGVRNLLNLVGKCAKMEGFMSGQYHHRMGEFFEEMTGYIKQGKIKYKEDVKVGLDSFLEAFNSMFTGENIGKPVIYLGPPLPK", "values": [{"measurement": "enzymatic activity of the expressed reductase", "setting": "[1]; expressed in E. coli, GST fusion removed", "result": "enzymatically active"}]}]}
